Patent US20250346585A1 (Alexion Pharmaceuticals, Inc., priority 2022, published 2025)

Molecular target: Human complement C1s enzyme (Homo sapiens (Human), UniProt P09871)
Assay: Human C1s enzyme assay
Format: biochemical
Settings: Human C1s enzyme assay of Example 3; read-out: IC50 (Stars)
Description: Human complement C1s enzyme (purified from human serum, Complement Technology, Inc.) at 1.16 nM final concentration was incubated with test compound at various concentrations for 5 min at room temperature in 50 mM Tris, 1 M NaCl, pH 7.5. A synthetic substrate Z-L-Lys-SBzl and DTNB (Ellman's reagent) were added to final concentrations of 100 μM each. Absorbance at 405 nm (A405) was recorded at 30 second intervals for 30 min using a microplate spectrophotometer. IC50 values were calculated by nonlinear regression of complement C1s reaction rates as a function of test compound concentration.

Human complement C1s enzyme, sequence (P09871 438-688 limits assumed): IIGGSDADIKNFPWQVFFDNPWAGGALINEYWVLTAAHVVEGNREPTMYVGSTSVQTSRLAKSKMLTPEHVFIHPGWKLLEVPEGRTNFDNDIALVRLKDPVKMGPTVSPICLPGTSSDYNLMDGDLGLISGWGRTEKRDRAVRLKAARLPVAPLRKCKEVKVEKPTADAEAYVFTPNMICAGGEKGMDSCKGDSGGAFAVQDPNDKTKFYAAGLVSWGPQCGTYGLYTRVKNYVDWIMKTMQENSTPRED
Human complement C1s enzyme, sequence (P09871 16-437 partner limits assumed): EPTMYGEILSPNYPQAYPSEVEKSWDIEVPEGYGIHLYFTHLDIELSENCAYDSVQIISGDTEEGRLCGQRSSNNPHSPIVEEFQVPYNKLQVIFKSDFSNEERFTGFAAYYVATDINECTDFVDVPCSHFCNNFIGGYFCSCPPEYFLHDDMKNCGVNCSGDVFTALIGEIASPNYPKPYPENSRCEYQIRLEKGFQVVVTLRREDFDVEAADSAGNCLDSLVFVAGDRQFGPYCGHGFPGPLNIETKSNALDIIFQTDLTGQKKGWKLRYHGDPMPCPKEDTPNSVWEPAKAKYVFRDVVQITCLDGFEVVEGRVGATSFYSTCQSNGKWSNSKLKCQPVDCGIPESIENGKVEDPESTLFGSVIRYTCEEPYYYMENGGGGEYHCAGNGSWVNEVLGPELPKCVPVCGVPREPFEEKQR

IC50, < 100 nM:
Cc1ccc(Oc2ccc(C(=O)NCC(=O)N3[C@H]4C[C@@]4(C)C[C@H]3C(=O)N[C@H](C)c3ccc(C(=N)N)s3)cc2)cc1 [Compound 26, (1S,3S,5S)—N—((R)-1-(5-carbamimidoylthiophen-2-yl)ethyl)-5-methyl-2-((4-(p-tolyloxy)benzoyl)glycyl)-2-azabicyclo[3.1.0]hexane-3-carboxamide]
Cc1cc(C(=O)NCC(=O)N2[C@H]3C[C@@]3(C)C[C@H]2C(=O)N[C@H](C)c2cc(C(=N)N)cs2)ccc1Oc1ccc(F)cc1 [Compound 27, (1S,3S,5S)—N—((R)-1-(4-carbamimidoylthiophen-2-yl)ethyl)-2-((4-(4-fluorophenoxy)-3-methylbenzoyl)glycyl)-5-methyl-2-azabicyclo[3.1.0]hexane-3-carboxamide]
Cc1cc(C(=O)NCC(=O)N2[C@H]3C[C@@]3(C)C[C@H]2C(=O)N[C@H](C)c2cc(C(=N)N)cs2)ccc1Oc1ccccc1 [Compound 28, (1S,3S,5S)—N—((R)-1-(4-carbamimidoylthiophen-2-yl)ethyl)-5-methyl-2-((3-methyl-4-phenoxybenzoyl)glycyl)-2-azabicyclo[3.1.0]hexane-3-carboxamide]
C[C@@H](NC(=O)[C@@H]1C[C@]2(C)C[C@@H]2N1C(=O)CNC(=O)c1ccc2c(c1)-c1ccccc1C2(F)F)c1ccc(C(=N)N)s1 [Compound 29, (1S,3S,5S)—N—((R)-1-(5-carbamimidoylthiophen-2-yl)ethyl)-2-((9,9-difluoro-9H-fluorene-3-carbonyl)glycyl)-5-methyl-2-azabicyclo[3.1.0]hexane-3-carboxamide]
C[C@@H](NC(=O)[C@@H]1C[C@@H](OC(F)F)CN1C(=O)CNC(=O)c1ccc2c(c1)-c1ccccc1C2(F)F)c1ccc(C(=N)N)s1 [Compound 30, (2S,4R)—N—((R)-1-(5-carbamimidoylthiophen-2-yl)ethyl)-1-((9,9-difluoro-9H-fluorene-3-carbonyl)glycyl)-4-(difluoromethoxy)pyrrolidine-2-carboxamide]
Cc1cc(C(=O)NCC(=O)N2[C@H]3C[C@@]3(C)C[C@H]2C(=O)N[C@H](C)c2ccc(C(=N)N)s2)ccc1Oc1ccccc1 [Compound 31, (1S,3S,5S)—N—((R)-1-(5-carbamimidoylthiophen-2-yl)ethyl)-5-methyl-2-((3-methyl-4-phenoxybenzoyl)glycyl)-2-azabicyclo[3.1.0]hexane-3-carboxamide]
Cc1cc(C(=O)NCC(=O)N2C[C@@](F)(CF)C[C@H]2C(=O)N[C@H](C)c2cc(C(=N)N)cs2)ccc1Oc1ccccc1 [Compound 32, (2S,4R)—N—((R)-1-(4-carbamimidoylthiophen-2-yl)ethyl)-4-fluoro-4-(fluoromethyl)-1-((3-methyl-4-phenoxybenzoyl)glycyl)pyrrolidine-2-carboxamide]
C[C@@H](NC(=O)[C@@H]1C[C@](F)(CF)CN1C(=O)CNC(=O)c1ccc2c(c1)-c1ccccc1C2(F)F)c1ccc(C(=N)N)s1 [Compound 33, (2S,4R)—N—((R)-1-(5-carbamimidoylthiophen-2-yl)ethyl)-1-((9,9-difluoro-9H-fluorene-3-carbonyl)glycyl)-4-fluoro-4-(fluoromethyl)pyrrolidine-2-carboxamide]
COC[C@@]1(F)C[C@@H](C(=O)N[C@H](C)c2cc(C(=N)N)cs2)N(C(=O)CNC(=O)c2ccc(Oc3ccccc3)c(C)c2)C1 [Compound 34, (2S,4R)—N—((R)-1-(4-carbamimidoylthiophen-2-yl)ethyl)-4-fluoro-4-(methoxymethyl)-1-((3-methyl-4-phenoxybenzoyl)glycyl)pyrrolidine-2-carboxamide]
C[C@@H](NC(=O)[C@@H]1C[C@](F)(CN)CN1C(=O)CNC(=O)c1ccc2c(c1)-c1ccccc1C2(F)F)c1cc(C(=N)N)cs1 [Compound 35, (2S,4S)-4-(aminomethyl)-N—((R)-1-(4-carbamimidoylthiophen-2-yl)ethyl)-1-((9,9-difluoro-9H-fluorene-3-carbonyl)glycyl)-4-fluoropyrrolidine-2-carboxamide]
C[C@@H](NC(=O)[C@@H]1C[C@](F)(CN(C)C)CN1C(=O)CNC(=O)c1ccc2c(c1)-c1ccccc1C2(F)F)c1cc(C(=N)N)cs1 [Compound 36, (2S,4S)—N—((R)-1-(4-carbamimidoylthiophen-2-yl)ethyl)-1-((9,9-difluoro-9H-fluorene-3-carbonyl)glycyl)-4-((dimethylamino)methyl)-4-fluoropyrrolidine-2-carboxamide]
C[C@@H](NC(=O)[C@@H]1C[C@@H](Oc2ccccc2)CN1C(=O)CNC(=O)c1ccc(Oc2ccc(F)cc2)cc1)c1cc(C(=N)N)cs1 [Compound 37, (2S,4R)—N—((R)-1-(4-carbamimidoylthiophen-2-yl)ethyl)-1-((4-(4-fluorophenoxy)benzoyl)glycyl)-4-phenoxypyrrolidine-2-carboxamide]
COC[C@@]12C[C@@H]1N(C(=O)CNC(=O)c1ccc(Oc3ccc(F)cc3)cc1)[C@H](C(=O)N[C@H](C)c1ccc(C(=N)N)s1)C2 [Compound 38, (1S,3S,5R)—N—((R)-1-(5-carbamimidoylthiophen-2-yl)ethyl)-2-((4-(4-fluorophenoxy)benzoyl)glycyl)-5-(methoxymethyl)-2-azabicyclo[3.1.0]-hexane-3-carboxamide]
CCc1ccc(Oc2ccc(C(=O)NCC(=O)N3C[C@H](OC(F)F)C[C@H]3C(=O)N[C@H](C)c3cc(C(=N)N)cs3)cc2)cc1 [Compound 39, (2S,4R)—N—((R)-1-(4-carbamimidoylthiophen-2-yl)ethyl)-4-(difluoromethoxy)-1-((4-(4-ethylphenoxy)benzoyl)glycyl)pyrrolidine-2-carboxamide]
C[C@@H](NC(=O)[C@@H]1C[C@](F)(CF)CN1C(=O)CNC(=O)c1ccc(Oc2ccc(F)cc2)cc1)c1ccc(C(=N)N)s1 [Compound 40, (2S,4R)—N—((R)-1-(5-carbamimidoylthiophen-2-yl)ethyl)-4-fluoro-4-(fluoromethyl)-1-((4-(4-fluorophenoxy)benzoyl)glycyl)pyrrolidine-2-carboxamide]
C[C@@H](NC(=O)[C@@H]1C[C@]2(CO)C[C@@H]2N1C(=O)CNC(=O)c1ccc(Oc2ccc(F)cc2)cc1)c1ccc(C(=N)N)s1 [Compound 41, (1S,3S,5R)—N—((R)-1-(5-carbamimidoylthiophen-2-yl)ethyl)-2-((4-(4-fluorophenoxy)benzoyl)glycyl)-5-(hydroxymethyl)-2-azabicyclo[3.1.0]hexane-3-carboxamide]
C[C@@H](NC(=O)[C@@H]1C[C@]2(CO)C[C@@H]2N1C(=O)CNC(=O)c1ccc(Oc2ccc(F)cc2)cc1)c1cc(C(=N)N)cs1 [Compound 42, (1S,3S,5R)—N—((R)-1-(4-carbamimidoylthiophen-2-yl)ethyl)-2-((4-(4-fluorophenoxy)benzoyl)glycyl)-5-(hydroxymethyl)-2-azabicyclo[3.1.0]hexane-3-carboxamide]
